# Measurements taken from PubChem BioAssay (NCI).
#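 Growth conditions: 96-well plates. Treatment: test compound, 48 hours, 5 concentrations. Analysis: linear interpolation between bracketing concentrations; unreached endpoints set to highest concentration. The concentration for 50% growth inhibition is given as GI50. At the TGI there is no net growth.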
# Legend:
# Assay in all cases: DTP human tumour cell line panel, 48 h
# PC-3 prostate = system: PC-3 prostate
# HT29 colon = system: HT29 colon
# SF-295 CNS = system: SF-295 CNS
# OVCAR-4 ovarian = system: OVCAR-4 ovarian
# HCC-2998 colon = system: HCC-2998 colon
# T-47D breast = system: T-47D breast
# NCI-H522 lung = system: NCI-H522 lung
# OVCAR-8 ovarian = system: OVCAR-8 ovarian
# MDA-MB-435 = system: MDA-MB-435
# EKVX NSCLC = system: EKVX NSCLC
# MDA-MB-231 breast = system: MDA-MB-231 breast
# IGROV1 ovarian = system: IGROV1 ovarian
# RXF 393 renal = system: RXF 393 renal
# SW-620 colon = system: SW-620 colon
# SNB-75 CNS = system: SNB-75 CNS
# ACHN renal = system: ACHN renal
# SR leukemia = system: SR leukemia
# HCT-116 colon = system: HCT-116 colon
# COLO 205 colon = system: COLO 205 colon
# HS 578T breast = system: HS 578T breast
# NCI/ADR-RES ovarian = system: NCI/ADR-RES ovarian
# UO-31 renal = system: UO-31 renal
# MOLT-4 leukemia = system: MOLT-4 leukemia
# K-562 leukemia = system: K-562 leukemia
# M14 melanoma = system: M14 melanoma
# NCI-H226 lung = system: NCI-H226 lung
# UACC-257 melanoma = system: UACC-257 melanoma
# CCRF-CEM leukemia = system: CCRF-CEM leukemia
# UACC-62 melanoma = system: UACC-62 melanoma
# A549 NSCLC = system: A549 NSCLC
# DU-145 prostate = system: DU-145 prostate
# KM12 colon = system: KM12 colon
# SF-539 CNS = system: SF-539 CNS
# LOX IMVI melanoma = system: LOX IMVI melanoma
# SK-OV-3 ovarian = system: SK-OV-3 ovarian
# SF-268 CNS = system: SF-268 CNS
# SK-MEL-28 melanoma = system: SK-MEL-28 melanoma
# MALME-3M melanoma = system: MALME-3M melanoma
# 786-0 renal = system: 786-0 renal
# HOP-62 NSCLC = system: HOP-62 NSCLC
# SN12C renal = system: SN12C renal
# HCT-15 colon = system: HCT-15 colon
# HOP-92 NSCLC = system: HOP-92 NSCLC
# BT-549 breast = system: BT-549 breast
# SK-MEL-2 melanoma = system: SK-MEL-2 melanoma
# SNB-19 CNS = system: SNB-19 CNS
# A498 renal = system: A498 renal
# OVCAR-5 ovarian = system: OVCAR-5 ovarian
# CAKI-1 renal = system: CAKI-1 renal
# OVCAR-3 ovarian = system: OVCAR-3 ovarian
# NCI-H23 lung = system: NCI-H23 lung
# NCI-H460 lung = system: NCI-H460 lung
# TK-10 renal = system: TK-10 renal
# U251 CNS = system: U251 CNS
# SK-MEL-5 melanoma = system: SK-MEL-5 melanoma
# HL-60(TB) leukemia = system: HL-60(TB) leukemia
# RPMI-8226 leukemia = system: RPMI-8226 leukemia
# MCF7 breast = system: MCF7 breast
structure (smiles),measurement,setting,value
CCCCCCNC(=O)Oc1ccc(/C(=C(/C)Cc2ccc(OC)cc2)c2ccc(OCCCN(C)C)cc2)cc1,GI50,PC-3 prostate,14.6 µM
same,TGI,PC-3 prostate,28.2 µM
same,GI50,HT29 colon,4.4 µM
same,TGI,HT29 colon,15.2 µM
same,GI50,SF-295 CNS,14.7 µM
same,TGI,SF-295 CNS,28.3 µM
same,GI50,OVCAR-4 ovarian,13.1 µM
same,TGI,OVCAR-4 ovarian,26.7 µM
same,GI50,HCC-2998 colon,14.6 µM
same,TGI,HCC-2998 colon,29.2 µM
same,GI50,T-47D breast,11.3 µM
same,TGI,T-47D breast,27.3 µM
same,GI50,NCI-H522 lung,16.2 µM
same,TGI,NCI-H522 lung,31.3 µM
same,GI50,OVCAR-8 ovarian,17.3 µM
same,TGI,OVCAR-8 ovarian,34.5 µM
same,GI50,MDA-MB-435,13.8 µM
same,TGI,MDA-MB-435,27.1 µM
same,GI50,EKVX NSCLC,13.2 µM
same,TGI,EKVX NSCLC,27.5 µM
same,GI50,MDA-MB-231 breast,15.3 µM
same,TGI,MDA-MB-231 breast,29.9 µM
same,GI50,IGROV1 ovarian,16.3 µM
same,TGI,IGROV1 ovarian,32.7 µM
same,GI50,RXF 393 renal,14.8 µM
same,TGI,RXF 393 renal,29.7 µM
same,GI50,SW-620 colon,16.4 µM
same,TGI,SW-620 colon,31.2 µM
same,GI50,SNB-75 CNS,12.6 µM
same,TGI,SNB-75 CNS,25.6 µM
same,GI50,ACHN renal,16.4 µM
same,TGI,ACHN renal,30.4 µM
same,GI50,SR leukemia,2.79 µM
same,TGI,SR leukemia,11.9 µM
same,GI50,HCT-116 colon,12.6 µM
same,TGI,HCT-116 colon,25.7 µM
same,GI50,COLO 205 colon,14.6 µM
same,TGI,COLO 205 colon,29.7 µM
same,GI50,HS 578T breast,15.5 µM
same,TGI,HS 578T breast,35.7 µM
same,GI50,NCI/ADR-RES ovarian,15.8 µM
same,TGI,NCI/ADR-RES ovarian,31.3 µM
same,GI50,UO-31 renal,10.9 µM
same,TGI,UO-31 renal,23.2 µM
same,GI50,MOLT-4 leukemia,12.3 µM
same,TGI,MOLT-4 leukemia,28.2 µM
same,GI50,K-562 leukemia,3.74 µM
same,TGI,K-562 leukemia,19.1 µM
same,GI50,M14 melanoma,12.3 µM
same,TGI,M14 melanoma,26.1 µM
same,GI50,NCI-H226 lung,19.4 µM
same,TGI,NCI-H226 lung,36 µM
same,GI50,UACC-257 melanoma,19.3 µM
same,TGI,UACC-257 melanoma,35.3 µM
same,GI50,CCRF-CEM leukemia,16.3 µM
same,TGI,CCRF-CEM leukemia,33.8 µM
same,GI50,UACC-62 melanoma,16.6 µM
same,TGI,UACC-62 melanoma,30.4 µM
same,GI50,A549 NSCLC,16.6 µM
same,TGI,A549 NSCLC,31.2 µM
same,GI50,DU-145 prostate,16.8 µM
same,TGI,DU-145 prostate,31.3 µM
same,GI50,KM12 colon,13.9 µM
same,TGI,KM12 colon,27.7 µM
same,GI50,SF-539 CNS,16.2 µM
same,TGI,SF-539 CNS,30.3 µM
same,GI50,LOX IMVI melanoma,2.61 µM
same,TGI,LOX IMVI melanoma,15.6 µM
same,GI50,SK-OV-3 ovarian,16.7 µM
same,TGI,SK-OV-3 ovarian,30.9 µM
same,GI50,SF-268 CNS,15 µM
same,TGI,SF-268 CNS,30.5 µM
same,GI50,SK-MEL-28 melanoma,14.5 µM
same,TGI,SK-MEL-28 melanoma,28.1 µM
same,GI50,MALME-3M melanoma,15.3 µM
same,TGI,MALME-3M melanoma,30.5 µM
same,GI50,786-0 renal,13.1 µM
same,TGI,786-0 renal,28.4 µM
same,GI50,HOP-62 NSCLC,18.4 µM
same,TGI,HOP-62 NSCLC,34.2 µM
same,GI50,SN12C renal,14.7 µM
same,TGI,SN12C renal,28.3 µM
same,GI50,HCT-15 colon,8.71 µM
same,TGI,HCT-15 colon,21.9 µM
same,GI50,HOP-92 NSCLC,9.99 µM
same,TGI,HOP-92 NSCLC,22.4 µM
same,GI50,BT-549 breast,15.6 µM
same,TGI,BT-549 breast,30.3 µM
same,GI50,SK-MEL-2 melanoma,18.5 µM
same,TGI,SK-MEL-2 melanoma,34 µM
same,GI50,SNB-19 CNS,17.2 µM
same,TGI,SNB-19 CNS,31.5 µM
same,GI50,A498 renal,14.1 µM
same,TGI,A498 renal,27.3 µM
same,GI50,OVCAR-5 ovarian,15.7 µM
same,TGI,OVCAR-5 ovarian,29.8 µM
same,GI50,CAKI-1 renal,14.5 µM
same,TGI,CAKI-1 renal,27.8 µM
same,GI50,OVCAR-3 ovarian,15.2 µM
same,TGI,OVCAR-3 ovarian,29.3 µM
same,GI50,NCI-H23 lung,15.1 µM
same,TGI,NCI-H23 lung,29.9 µM
same,GI50,NCI-H460 lung,14.1 µM
same,TGI,NCI-H460 lung,28.2 µM
same,GI50,TK-10 renal,17.2 µM
same,TGI,TK-10 renal,31.6 µM
same,GI50,U251 CNS,13 µM
same,TGI,U251 CNS,26.5 µM
same,GI50,SK-MEL-5 melanoma,16.4 µM
same,TGI,SK-MEL-5 melanoma,30.1 µM
same,GI50,HL-60(TB) leukemia,10.5 µM
same,TGI,HL-60(TB) leukemia,24.9 µM
same,GI50,RPMI-8226 leukemia,15.9 µM
same,TGI,RPMI-8226 leukemia,35 µM
same,GI50,MCF7 breast,1.12 µM
same,TGI,MCF7 breast,17.1 µM
